From the supplement of paper PMC10307832

What was measured:
Assay in all cases: relative viability (nuclei count vs DMSO), 5 days (fraction); higher = more cells survive
Trametinib + Foretinib = compound: CC(=O)Nc1cccc(-n2c(=O)n(C3CC3)c(=O)c3c(Nc4ccc(I)cc4F)n(C)c(=O)c(C)c32)c1 [Trametinib] + COc1cc2c(Oc3ccc(NC(=O)C4(C(=O)Nc5ccc(F)cc5)CC4)cc3F)ccnc2cc1OCCCN1CCOCC1 [Foretinib] (partner 0.25 µM)
Outline: (§1)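 Medians of duplicate plates are given as relative viability. That measure is the nuclei count in treated wells divided by the count in vehicle wells. Counts were taken on 4× images of lung cancer cell lines in 1536-well plates, 5 days after pin-tool dosing the day after seeding with one drug alone or a fixed anchor-drug dose plus five library-drug doses (not always all listed) in √10 steps.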

Trametinib + AZD7762 = compound: CC(=O)Nc1cccc(-n2c(=O)n(C3CC3)c(=O)c3c(Nc4ccc(I)cc4F)n(C)c(=O)c(C)c32)c1 [Trametinib] + NC(=O)Nc1cc(-c2cccc(F)c2)sc1C(=O)N[C@H]1CCCNC1 [AZD7762] (partner 0.2 µM)
Outline: as §1

[1] = compound: CN1C=C(C2=CC=CC=C21)/C=C\3/C4=C(C=CC=N4)NC3=O + CS(=O)(=O)CCNCc1ccc(-c2ccc3ncnc(Nc4ccc(OCc5cccc(F)c5)c(Cl)c4)c3c2)o1 [Lapatinib] (partner 2 µM)
Outline: as §1

[2] = compound: CN1C=C(C2=CC=CC=C21)/C=C\3/C4=C(C=CC=N4)NC3=O + CC(C)C[C@H](NC(=O)[C@H](Cc1ccccc1)NC(=O)c1cnccn1)B(O)O [Bortezomib] (partner 0.002 µM)
Outline: as §1

Cell Line | relative viability (Trametinib + Foretinib; first compound 0.0025 µM) | relative viability (Trametinib + Foretinib; first compound 0.007906 µM) | relative viability (Trametinib + Foretinib; first compound 0.025 µM) | relative viability (Trametinib + Foretinib; first compound 0.07906 µM) | relative viability (Trametinib + Foretinib; first compound 0.25 µM) | relative viability (Trametinib + AZD7762; first compound 0.0025 µM) | relative viability (Trametinib + AZD7762; first compound 0.007906 µM) | relative viability (Trametinib + AZD7762; first compound 0.025 µM) | relative viability (Trametinib + AZD7762; first compound 0.07906 µM) | relative viability (Trametinib + AZD7762; first compound 0.25 µM) | relative viability ([1]; first compound 0.02 µM) | relative viability ([1]; first compound 0.06325 µM) | relative viability ([1]; first compound 0.6325 µM) | relative viability ([1]; first compound 2 µM) | relative viability ([2]; first compound 0.02 µM) | relative viability ([2]; first compound 0.06325 µM) | relative viability ([2]; first compound 0.6325 µM) | relative viability ([2]; first compound 2 µM) | relative viability ([1]; first compound 0.2 µM) | relative viability ([2]; first compound 0.2 µM)
EPLC-272H | 0.476 | 0.384 | 0.26 | 0.237 | 0.14 | 0.223 | 0.242 | 0.175 | 0.17 | 0.225 | 0.979 | 0.819 | 0.995 | 0.883 | 0.959 | 0.704 | 0.918 | 0.873 |  | 
NCI-H2405 | 1.08 | 0.874 | 0.903 | 0.72 | 0.563 | 0.566 | 0.616 | 0.425 |  | 0.401 | 1.03 | 1.02 | 1.06 | 1.03 | 0.997 | 0.874 | 0.892 | 1 | 0.749 | 
LCLC-97TM1 | 0.817 | 0.666 | 0.459 | 0.306 | 0.301 | 0.352 | 0.306 | 0.137 | 0.161 | 0.123 | 0.696 |  | 0.882 | 0.948 |  | 0.444 | 0.521 | 0.517 |  | 
NCI-H727 | 0.455 | 0.269 | 0.359 | 0.32 | 0.238 | 0.356 | 0.386 | 0.315 | 0.279 | 0.355 | 0.757 | 0.688 | 0.914 | 0.767 | 0.923 | 0.564 | 1.24 | 1.32 | 0.428 | 0.646
